Like-named read-outs stand apart in the source and are kept apart here.
Legend:
[1] = system: 6 Hz (44 mA) seizures, mice; test: 6 Hz (44 mA) seizure test; assay type: in vivo; conditions: Mus musculus, ip, pretreatment time 0.5 h
Excerpt: Both the aforementioned parameters (ED50 and TD50) enabled the calculation of protective indexes (PIs), which reflect the comparative the benefit–risk ratio of these experimental therapeutic agents.
Four mice per group were randomly assigned to each experimental group in the initial screening experiments (each mouse was used just once). Four groups, each with eight animals, received injections of different doses of the investigated substances in order to determine the ED50 or TD50 values. The PIs for the compounds investigated and reference ASMs were calculated by dividing the TD50 value, as determined in the chimney test by the respective ED50 value, as determined in the MES, scPTZ, or 6 Hz (32 mA or 44 mA) tests (PI = TD50/ED50). The PIs are a measure of the potential therapeutic window of the tested agent.
All substances were suspended in Tween 80 (1% aqueous solution) and administered i.p. as a single injection at a volume of 10 mL/kg. On each day of experimentation, fresh solutions were prepared.

[2] = biological target: T1, Voltage-Gated Sodium channel hNav1.1 (Homo sapiens, UniProt P35498); test: human sodium ion channel cell based automated patch clamp assay, hNav1.1
T1 construct: Eurofins Discovery (St. Charles, MO, USA)
Procedure: (§1) Therefore, as a part of the more detailed functional characterization using automated patch clamp method, we tested the influence of (R)-32 on sodium currents mediated by several Navx channels comprising 5 different human subunits, namely, Nav1.1, Nav1.2, Nav1.3, Nav1.6, and Nav1.7, which are involved in both seizure and/or pain modulation.[74],[80],[81] As summarized in Tables S4–S8, (R)-32 starting from 10 μM effectively and in concentration-dependent manner decreased sodium currents mediated by all aforementioned sodium channel subunits. Furthermore, (R)-32 appeared to bind exclusively to sodium channels that are in an inactivated state (see pulse 2 in Tables S4–S8), but not to the channels that are in an open state (pulse 1) (for additional details, see Supporting Information).
(§2) Human sodium ion channels cell based automated patch clamp assay
(§3) Human sodium ion channels cell based automated patch clamp assays: sodium channels exist in, a) a resting or closed state at -120 mV, b) a transient open state that inactivates to c) inactivated state at -10 mV. Sodium current inhibition within 1-2 ms of channel opening at 0 mV is open channel inhibition (pulse 1). In order to completely inactivate the sodium channels and facilitate inactivated state-dependent binding of the drug, the channels were kept at […] ( -10 mV) longer (pulsed for 500 ms) and then stepped back to -120 mV for 10 ms to recover from inactivation into resting or closed state (but the channels that had drug bound to them will not recover from inactivation and will not open) before stepping to -10 mV for 50 ms (pulse 2) to mea sure sodium channels that are available to open. The higher inhibition seen at pulse 2 is due to inactivated state -dependent inhibition. Pulse 1 and 2 are used to investigate drug binding to the open state and inactivated state of the Na channels, respectively. Each concentration of compound is applied for 5 minutes. The results obtained for (R)-32 are summerized in Tables S4–S8.
Table S4. Effect of the (R)-32 on subunit Nav1.1.
Voltage-Gated Sodium channel hNav1.1
(§4) Compound Concentration Measurement % Inhibition
(§5) Data interpretation: Results showing inhibition greater than 50% are considered to represent significant effects of test compound and have been bolded for (R)-32 for better visualization. The studies were carried out in Eurofins Discovery (St. Charles, MO, USA).

[3] = biological target: T2, Voltage-Gated Sodium channel hNav1.2 (Homo sapiens, UniProt Q99250); test: human sodium ion channel cell based automated patch clamp assay, hNav1.2
T2 construct: Eurofins Discovery (St. Charles, MO, USA)
T2 sequence (Q99250 whole entry): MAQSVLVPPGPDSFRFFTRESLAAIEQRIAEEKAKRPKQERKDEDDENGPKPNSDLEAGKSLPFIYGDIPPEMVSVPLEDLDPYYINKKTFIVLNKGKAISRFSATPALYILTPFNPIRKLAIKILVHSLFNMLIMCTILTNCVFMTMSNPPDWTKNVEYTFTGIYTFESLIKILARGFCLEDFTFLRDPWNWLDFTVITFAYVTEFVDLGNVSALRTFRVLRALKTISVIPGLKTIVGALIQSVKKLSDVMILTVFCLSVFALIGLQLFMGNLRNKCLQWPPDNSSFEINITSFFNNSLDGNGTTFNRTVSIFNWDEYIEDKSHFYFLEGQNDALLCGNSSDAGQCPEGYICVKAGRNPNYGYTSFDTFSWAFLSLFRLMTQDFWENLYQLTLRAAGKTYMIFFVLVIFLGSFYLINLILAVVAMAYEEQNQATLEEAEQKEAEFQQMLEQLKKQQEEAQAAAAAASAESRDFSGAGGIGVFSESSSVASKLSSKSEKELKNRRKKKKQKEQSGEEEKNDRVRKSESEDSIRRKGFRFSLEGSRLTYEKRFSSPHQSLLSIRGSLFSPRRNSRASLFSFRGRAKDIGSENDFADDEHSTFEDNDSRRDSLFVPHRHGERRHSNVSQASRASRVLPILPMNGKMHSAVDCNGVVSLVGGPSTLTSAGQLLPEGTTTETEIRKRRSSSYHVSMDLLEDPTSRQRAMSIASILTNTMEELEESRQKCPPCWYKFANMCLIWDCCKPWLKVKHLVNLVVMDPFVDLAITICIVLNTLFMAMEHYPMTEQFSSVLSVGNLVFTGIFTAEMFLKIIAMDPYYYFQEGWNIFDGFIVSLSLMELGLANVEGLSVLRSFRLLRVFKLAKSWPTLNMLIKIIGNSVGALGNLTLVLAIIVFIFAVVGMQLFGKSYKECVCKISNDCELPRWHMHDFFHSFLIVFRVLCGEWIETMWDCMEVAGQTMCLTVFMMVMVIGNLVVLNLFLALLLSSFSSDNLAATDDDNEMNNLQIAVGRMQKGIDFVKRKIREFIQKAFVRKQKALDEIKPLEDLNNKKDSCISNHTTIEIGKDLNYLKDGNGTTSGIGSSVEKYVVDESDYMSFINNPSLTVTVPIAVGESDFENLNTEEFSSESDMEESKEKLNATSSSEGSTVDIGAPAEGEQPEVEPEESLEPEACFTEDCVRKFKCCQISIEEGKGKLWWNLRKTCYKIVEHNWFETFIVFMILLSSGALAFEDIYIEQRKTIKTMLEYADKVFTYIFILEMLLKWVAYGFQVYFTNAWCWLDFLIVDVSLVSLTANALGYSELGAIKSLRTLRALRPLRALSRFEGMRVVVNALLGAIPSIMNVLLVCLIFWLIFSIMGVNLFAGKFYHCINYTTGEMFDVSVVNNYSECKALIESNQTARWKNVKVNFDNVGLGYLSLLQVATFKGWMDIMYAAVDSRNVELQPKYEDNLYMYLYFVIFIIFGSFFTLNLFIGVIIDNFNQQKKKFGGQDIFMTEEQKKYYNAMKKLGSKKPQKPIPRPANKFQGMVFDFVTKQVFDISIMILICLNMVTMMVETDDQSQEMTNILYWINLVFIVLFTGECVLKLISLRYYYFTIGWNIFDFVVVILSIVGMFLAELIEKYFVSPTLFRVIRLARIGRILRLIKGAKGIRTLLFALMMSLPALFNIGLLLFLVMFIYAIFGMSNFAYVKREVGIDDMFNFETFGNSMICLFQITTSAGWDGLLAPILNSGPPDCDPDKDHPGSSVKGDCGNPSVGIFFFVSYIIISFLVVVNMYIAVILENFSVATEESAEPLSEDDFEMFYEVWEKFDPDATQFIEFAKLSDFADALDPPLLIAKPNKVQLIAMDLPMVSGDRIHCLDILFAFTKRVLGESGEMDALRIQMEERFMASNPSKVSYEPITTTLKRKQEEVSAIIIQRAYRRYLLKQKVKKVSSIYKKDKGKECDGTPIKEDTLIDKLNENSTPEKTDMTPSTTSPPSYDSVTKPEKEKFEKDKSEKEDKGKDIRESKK
Procedure: as §1, §2
as §3, with “S4–S8. […]” for “S4–S8.”
as §4, §5

[4] = biological target: T3, Voltage-Gated Sodium channel hNav1.3 (Homo sapiens, UniProt Q9NY46); test: human sodium ion channel cell based automated patch clamp assay, hNav1.3
T3 construct: Eurofins Discovery (St. Charles, MO, USA)
T3 sequence (Q9NY46 whole entry): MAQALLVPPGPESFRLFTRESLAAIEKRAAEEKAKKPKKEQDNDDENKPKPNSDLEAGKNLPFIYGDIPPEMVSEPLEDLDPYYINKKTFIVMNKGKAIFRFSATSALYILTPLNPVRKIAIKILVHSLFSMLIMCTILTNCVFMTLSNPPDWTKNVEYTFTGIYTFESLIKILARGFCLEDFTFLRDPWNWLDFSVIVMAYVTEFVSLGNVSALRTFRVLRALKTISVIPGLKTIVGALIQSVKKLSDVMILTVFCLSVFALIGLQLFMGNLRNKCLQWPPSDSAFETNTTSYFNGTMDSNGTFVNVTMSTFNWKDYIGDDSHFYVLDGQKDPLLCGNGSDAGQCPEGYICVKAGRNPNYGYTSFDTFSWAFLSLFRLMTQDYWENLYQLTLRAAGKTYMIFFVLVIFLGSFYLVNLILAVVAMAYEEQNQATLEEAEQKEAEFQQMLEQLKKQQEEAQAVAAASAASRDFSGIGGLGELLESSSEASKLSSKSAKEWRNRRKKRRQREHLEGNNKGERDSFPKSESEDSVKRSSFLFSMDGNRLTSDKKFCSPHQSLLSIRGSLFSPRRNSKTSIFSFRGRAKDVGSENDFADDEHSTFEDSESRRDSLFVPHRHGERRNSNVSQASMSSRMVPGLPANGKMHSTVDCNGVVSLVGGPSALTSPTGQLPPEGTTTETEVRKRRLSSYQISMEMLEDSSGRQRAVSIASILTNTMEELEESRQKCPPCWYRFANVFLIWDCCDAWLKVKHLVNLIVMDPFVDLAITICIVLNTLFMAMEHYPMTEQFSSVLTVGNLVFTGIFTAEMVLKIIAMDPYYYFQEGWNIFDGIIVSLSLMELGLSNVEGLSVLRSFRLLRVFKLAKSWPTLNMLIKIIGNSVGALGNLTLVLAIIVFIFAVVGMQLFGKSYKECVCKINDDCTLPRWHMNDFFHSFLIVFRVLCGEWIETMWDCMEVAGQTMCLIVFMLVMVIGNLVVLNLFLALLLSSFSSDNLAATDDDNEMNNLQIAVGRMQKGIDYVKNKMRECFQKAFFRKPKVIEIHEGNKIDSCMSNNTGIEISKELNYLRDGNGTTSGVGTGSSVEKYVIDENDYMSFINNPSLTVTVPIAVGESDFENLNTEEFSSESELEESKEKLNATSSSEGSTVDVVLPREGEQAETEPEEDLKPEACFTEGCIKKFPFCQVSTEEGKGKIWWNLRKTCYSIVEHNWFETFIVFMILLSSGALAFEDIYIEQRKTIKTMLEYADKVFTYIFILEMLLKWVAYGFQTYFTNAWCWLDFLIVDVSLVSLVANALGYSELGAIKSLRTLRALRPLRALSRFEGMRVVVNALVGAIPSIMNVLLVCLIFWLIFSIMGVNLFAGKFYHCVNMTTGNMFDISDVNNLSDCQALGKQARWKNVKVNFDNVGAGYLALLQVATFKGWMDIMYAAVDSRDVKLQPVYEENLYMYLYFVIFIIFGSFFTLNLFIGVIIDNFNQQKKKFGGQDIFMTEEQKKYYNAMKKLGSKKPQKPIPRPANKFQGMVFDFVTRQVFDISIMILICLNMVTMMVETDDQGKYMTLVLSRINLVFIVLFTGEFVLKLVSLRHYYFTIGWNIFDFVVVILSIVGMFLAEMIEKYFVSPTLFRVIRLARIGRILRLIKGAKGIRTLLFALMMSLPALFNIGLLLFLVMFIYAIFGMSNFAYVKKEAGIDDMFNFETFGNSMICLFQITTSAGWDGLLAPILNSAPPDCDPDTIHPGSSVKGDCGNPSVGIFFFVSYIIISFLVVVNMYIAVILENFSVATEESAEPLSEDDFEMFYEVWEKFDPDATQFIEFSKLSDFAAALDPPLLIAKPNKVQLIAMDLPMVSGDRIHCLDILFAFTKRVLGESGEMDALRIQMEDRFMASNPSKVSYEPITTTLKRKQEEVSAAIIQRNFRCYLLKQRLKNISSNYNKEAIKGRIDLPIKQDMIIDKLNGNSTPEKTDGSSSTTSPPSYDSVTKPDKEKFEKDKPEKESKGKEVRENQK
Procedure: as §1, §2
as §3, with “S4–S8. […]” for “S4–S8.”
as §4, §5

[5] = biological target: T4, Voltage-Gated Sodium channel hNav1.6 (Homo sapiens, UniProt Q9UQD0); test: human sodium ion channel cell based automated patch clamp assay, hNav1.6
T4 construct: Eurofins Discovery (St. Charles, MO, USA)
Procedure: as §1, §2
as §3, with “S4–S8. […]” for “S4–S8.”
as §4, §5

[6] = hNav1.1, Pulse 1 (open state), read-out: % Inhibition Mean
[7] = hNav1.1, Pulse 1 (open state), read-out: % Inhibition n1
[8] = hNav1.1, Pulse 1 (open state), read-out: % Inhibition n2
[9] = hNav1.1, Pulse 2 (inactivated state), read-out: % Inhibition Mean
[10] = hNav1.1, Pulse 2 (inactivated state), read-out: % Inhibition n1
[11] = hNav1.1, Pulse 2 (inactivated state), read-out: % Inhibition n2
[12] = hNav1.2, Pulse 1 (open state), read-out: % Inhibition Mean
[13] = hNav1.2, Pulse 1 (open state), read-out: % Inhibition n1
[14] = hNav1.2, Pulse 1 (open state), read-out: % Inhibition n2
[15] = hNav1.2, Pulse 2 (inactivated state), read-out: % Inhibition Mean
[16] = hNav1.2, Pulse 2 (inactivated state), read-out: % Inhibition n1
[17] = hNav1.2, Pulse 2 (inactivated state), read-out: % Inhibition n2
[18] = hNav1.3, Pulse 1 (open state), read-out: % Inhibition Mean
[19] = hNav1.3, Pulse 1 (open state), read-out: % Inhibition n1
[20] = hNav1.3, Pulse 1 (open state), read-out: % Inhibition n2
[21] = hNav1.3, Pulse 2 (inactivated state), read-out: % Inhibition Mean
[22] = hNav1.3, Pulse 2 (inactivated state), read-out: % Inhibition n1
[23] = hNav1.3, Pulse 2 (inactivated state), read-out: % Inhibition n2
[24] = hNav1.6, Pulse 1 (open state), read-out: % Inhibition Mean
[25] = hNav1.6, Pulse 1 (open state), read-out: % Inhibition n1
[26] = hNav1.6, Pulse 1 (open state), read-out: % Inhibition n2
[27] = hNav1.6, Pulse 2 (inactivated state), read-out: % Inhibition Mean
[28] = hNav1.6, Pulse 2 (inactivated state), read-out: % Inhibition n1
[29] = hNav1.6, Pulse 2 (inactivated state), read-out: % Inhibition n2

CC(=O)N[C@@H](C(=O)N1CCN(c2cccc(C(F)(F)F)c2)CC1)c1ccccc1 [(R)-31, (R)-N-(2-Oxo-1-phenyl-2-(4-(3-(trifluoromethyl)phenyl)piperazin-1-yl)ethyl)acetamide]
ED50 [1]: 44.2 mg/kg

CCCCNc1ccc(C(=O)OCCN(C)C)cc1 [Tetracaine, reference compound]
inhibition at 3 µM [2, 6]: 3.28%
inhibition at 3 µM [2, 7]: 4.33%
inhibition at 3 µM [2, 8]: 2.23%
inhibition at 30 µM [2, 6]: 16.2%
inhibition at 30 µM [2, 7]: 20.5%
inhibition at 30 µM [2, 8]: 11.9%
inhibition at 300 µM [2, 6]: 89.7%
inhibition at 300 µM [2, 7]: 91%
inhibition at 300 µM [2, 8]: 88.4%
inhibition at 3 µM [2, 9]: 54.9%
inhibition at 3 µM [2, 10]: 58.3%
inhibition at 3 µM [2, 11]: 51.5%
inhibition at 30 µM [2, 9]: 95.7%
inhibition at 30 µM [2, 10]: 96.6%
inhibition at 30 µM [2, 11]: 94.8%
inhibition at 300 µM [2, 9]: 101%
inhibition at 300 µM [2, 10]: 102%
inhibition at 300 µM [2, 11]: 100%
inhibition at 3 µM [3, 12]: -2.64%
inhibition at 3 µM [3, 13]: 5.99%
inhibition at 3 µM [3, 14]: -11.3%
inhibition at 30 µM [3, 12]: 14%
inhibition at 30 µM [3, 13]: 19%
inhibition at 30 µM [3, 14]: 8.92%
inhibition at 300 µM [3, 12]: 70%
inhibition at 300 µM [3, 13]: 64.9%
inhibition at 300 µM [3, 14]: 75.1%
inhibition at 3 µM [3, 15]: 54.9%
inhibition at 3 µM [3, 16]: 55.2%
inhibition at 3 µM [3, 17]: 54.7%
inhibition at 30 µM [3, 15]: 99.6%
inhibition at 30 µM [3, 16]: 98.8%
inhibition at 30 µM [3, 17]: 100%
inhibition at 300 µM [3, 15]: 101%
inhibition at 300 µM [3, 16]: 99.9%
inhibition at 300 µM [3, 17]: 101%
inhibition at 3 µM [4, 18]: 0.75%
inhibition at 3 µM [4, 19]: 3.41%
inhibition at 3 µM [4, 20]: -1.92%
inhibition at 30 µM [4, 18]: 9.85%
inhibition at 30 µM [4, 19]: 10.3%
inhibition at 30 µM [4, 20]: 9.44%
inhibition at 300 µM [4, 18]: 84.8%
inhibition at 300 µM [4, 19]: 81.8%
inhibition at 300 µM [4, 20]: 87.8%
inhibition at 3 µM [4, 21]: 56.1%
inhibition at 3 µM [4, 22]: 56.1%
inhibition at 3 µM [4, 23]: 56.1%
inhibition at 30 µM [4, 21]: 100%
inhibition at 30 µM [4, 22]: 98.9%
inhibition at 30 µM [4, 23]: 101%
inhibition at 300 µM [4, 21]: 101%
inhibition at 300 µM [4, 22]: 101%
inhibition at 300 µM [4, 23]: 102%
inhibition at 3 µM [5, 24]: 4.79%
inhibition at 3 µM [5, 25]: 7.73%
inhibition at 3 µM [5, 26]: 1.85%
inhibition at 30 µM [5, 24]: 34.7%
inhibition at 30 µM [5, 25]: 34.7%
inhibition at 30 µM [5, 26]: 34.7%
inhibition at 300 µM [5, 24]: 75%
inhibition at 300 µM [5, 25]: 68.2%
inhibition at 300 µM [5, 26]: 81.8%
inhibition at 3 µM [5, 27]: 86.4%
inhibition at 3 µM [5, 28]: 80.8%
inhibition at 3 µM [5, 29]: 91.9%
inhibition at 30 µM [5, 27]: 99.2%
inhibition at 30 µM [5, 28]: 95.7%
inhibition at 30 µM [5, 29]: 103%
inhibition at 300 µM [5, 27]: 97.9%
inhibition at 300 µM [5, 28]: 91.3%
inhibition at 300 µM [5, 29]: 104%

Reference: article PMC11378297, “Discovery and Profiling of New Multimodal Phenylglycinamide Derivatives as Potent Antiseizure and Antinociceptive Drug Candidates” (ACS Chemical Neuroscience, 2024)
